# Values of other authors, collected in patent US20130109728A1, “BIOCIDE COMPOSITION” (TITAN CHEMICALS LIMITED, priority 2011, published 2013).
# Assays:
# [1] = not given; remark: listed apart in the source
compound,measurement,setting,value
"C[N+](C)(C)C.O=c1[nH]sc2ccccc12 [tetramethylammonium BIT, tetramethylammonium 1,2-benzisothiazolin-3-one]",minimum freezing point of water solution,"59 wt % tetramethylammonium BIT (40 wt % calculated as BIT), after storage for 24 hours and seeding with solid tetramethylammonium BIT, reported in WO 02 14 293",3 °C
"O=c1[nH]sc2ccccc12 [BIT, 1,2-benzisothiazolin-3-one]",water solubility,[1],not very water soluble
"Cn1sccc1=O [MIT, 2-methylisothiazolin-3-one]",freezing point of solutions in water,solutions of MIT in water,about 0 °C
